Key:
Type in all cases: in vitro ADME
[1] = Plasma protein binding, equilibrium dialysis (human); conditions: pH 7.4, human plasma, read-out: fu plasma (h)
Experimental: page 13: at half log concentrations in DMSO were further diluted in assay buffer. The compounds or DMSO vehicle were added to cells and incubated for 2.5 min and an EC20 concentration of glutamate was added and incubated for 1 min. An ECmax concentration of glutamate was also added to cells that were incubated with DMSO vehicle to accurately calculate the EC20 calcium response. Data were normalized by subtracting the basal florescent peak before EC20 agonist addition from the maximal peak elicited by EC20 agonist and PAMs. Using GraphPad Prism 5.0, the concentration response curves were generated and the potencies of the mGlu1 PAMs were determined. DMPK Methods Plasma protein binding: The protein binding of each compound was determined in plasma via equilibrium dialysis employing RED Plates (ThermoFisher Scientific, Rochester, NY). Plasma was added to the 96 well plate containing test compound and mixed thoroughly for a final concentration of 5 µM. Subsequently, an aliquot of the plasma-compound mixture was transferred to the cis chamber (red) of the RED plate, with an phosphate buffer (25 mM, pH 7.4) in the trans chamber. The RED plate was sealed and incubated for 4 hours at 37°C with shaking. At completion, aliquots from each chamber were diluted 1:1 with either plasma (cis) or buffer (trans) and transferred to a new 96 well plate, at which time ice-cold acetonitrile containing internal standard (50 ng/mL carbamazepine) (2 volumes) was added to extract the matrices. The plate was centrifuged (3000 rcf, 10 min) and supernatants transferred and diluted 1:1 (supernatant: water) into a new 96 well plate, which was then sealed in preparation for LC/MS/MS analysis. Each compound was assayed in triplicate within the same 96-well plate. Fraction unbound was determined using the following equation F = Concbuffer u Conc plasma Intrinsic clearance: Human or rat hepatic microsomes (0.5 mg/mL) and 1 µM test compound were incubated in 100 mM potassium phosphate pH 7.4 buffer with 3 mM MgCl2 at 37°C with constant shaking. After a 5 min preincubation, the reaction was initiated by addition of NADPH (1 mM). At selected time intervals (0, 3, 7, 15, 25, and 45 min), aliquots were taken and subsequently placed into a 96-well plate containing cold acetonitrile with internal standard (50 ng/mL carbamazepine). Plates were then centrifuged at 3000 rcf (4° C) for 10 min, and the supernatant was transferred to a separate 96-well plate and diluted 1:1 with water for LC/MS/MS analysis. The in vitro half-life (T 1/2, min, Eq. 1), intrinsic clearance (CLint, mL/min/kg, Eq. 2) and subsequent predicted hepatic clearance (CLhep, mL/min/kg, Eq. 3) was determined S13

CYP450 2C9 = target: T1, CYP450 2C9 (Homo sapiens, UniProt P11712); assay: Inhibition of cytochrome P450 enzymes in human liver microsomes, 2C9
T1 construct: 0.1 mg/mL human liver microsomes (HLM); from tissue; host or cells: human liver microsomes
Experimental: (§1) Inhibition of Cytochrome P450 Enzymes: A cocktail of substrates for cytochrome P450 enzymes (1A2: Phenacetin, 10 µM; 2C9: Diclofenac, 5 µM; 2D6: Dextromethorphan, 5 µM; 3A4:
(§2) Midazolam, 2 µM) were mixed for cocktail analysis. For P450 2C19, the substrate stock (Mephenytoin, 40 µM )and substrate mix were prepared separately for discrete analysis. The […]
(§3) positive control for pan-P450 inhibition (miconazole) was included alongside each test compound […]
(§4) A reaction mixture of 100 mM Kpi, pH 7.4, 0.1 mg/mL human liver microsomes (HLM) and Substrate Mix is prepared and aliquoted into a 96-deepwell block. Test compound and positive control (in duplicate) were then added such that the final concentration of test compound ranged from 0.1 – 30 µM. The plate was vortexed briefly and then pre-incubated at 37 °C while shaking for 15 minutes. The reaction was initiated with the addition of NADPH (1 mM final concentration). The incubation continued for 8 min and the reaction quenched by 2x volume of cold acetonitrile containing internal standard (50 nM carbamazepine). The plate was centrifuged for 10 minutes (4000 rcf, 4°C) and the resulting supernatant diluted 1:1 with water for LC/MS/MS analysis. A 12 point standard curve of substrate metabolites over the range of 0.98 nM to 2000 […]
(§5) Samples were analyzed via electrospray ionization (ESI) on an AB Sciex API-4000 (Foster City, CA) triple-quadrupole instrument that was coupled with Shimadzu LC-10AD pumps (Columbia, MD) and a Leap Technologies CTC PAL auto-sampler (Carrboro, NC). Analytes were separated by gradient elution using a Fortis C18 3.0 x 50 mm, 3 µm column (Fortis Technologies Ltd, Cheshire, UK) thermostated at 40°C. HPLC mobile phase A was 0.1% formic acid in water (pH unadjusted), mobile phase B was 0.1% formic acid in acetonitrile (pH unadjusted). The gradient […]
(§6) 90% B for 0.1 min and returned to 10% B in 0.1 min followed by a re-equilibration (0.9 min). The total run time was 2.5 min and the HPLC flow rate was 0.5 mL/min. The source temperature was set at 500°C and mass spectral analyses were performed using multiple reaction monitoring (MRM), with transitions specific for each compound utilizing a Turbo-Ionspray® source in positive ionization mode (5.0 kV spray voltage).
(§7) The IC50 values for each compound were obtained for the individual CYP enzymes by quantitating the inhibition of metabolite formation for each probe substrate. A 0 µM compound condition (or control) was set to 100% enzymatic activity and the effect of increasing test compound concentrations on enzymatic activity could then be calculated from the % of control activity.
(§8) Curves were fitted using XLfit 5.2.2 (four-parameter logistic model, equation 201) to determine the concentration that produces half-maximal inhibition (IC50).

CYP450 3A4 = target: T2, CYP450 3A4 (Homo sapiens, UniProt P08684); assay: Inhibition of cytochrome P450 enzymes in human liver microsomes, 3A4
T2 construct: 0.1 mg/mL human liver microsomes (HLM); from tissue; host or cells: human liver microsomes
Experimental: as §1, §2, §3, §4, §5, §6, §7, §8

T2 sequence (P08684 whole entry): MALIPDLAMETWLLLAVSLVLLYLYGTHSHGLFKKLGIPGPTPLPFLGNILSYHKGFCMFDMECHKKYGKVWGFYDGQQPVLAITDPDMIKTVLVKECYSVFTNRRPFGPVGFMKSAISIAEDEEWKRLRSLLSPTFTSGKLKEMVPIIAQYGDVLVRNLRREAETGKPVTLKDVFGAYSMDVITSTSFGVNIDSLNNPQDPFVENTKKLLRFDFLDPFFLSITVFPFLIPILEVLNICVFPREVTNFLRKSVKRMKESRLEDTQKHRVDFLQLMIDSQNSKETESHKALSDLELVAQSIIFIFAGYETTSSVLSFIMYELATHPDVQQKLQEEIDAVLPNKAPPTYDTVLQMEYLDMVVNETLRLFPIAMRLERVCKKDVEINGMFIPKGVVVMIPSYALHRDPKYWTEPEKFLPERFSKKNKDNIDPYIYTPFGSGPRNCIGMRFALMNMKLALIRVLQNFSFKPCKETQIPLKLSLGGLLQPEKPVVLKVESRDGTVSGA
T1 sequence (P11712 whole entry): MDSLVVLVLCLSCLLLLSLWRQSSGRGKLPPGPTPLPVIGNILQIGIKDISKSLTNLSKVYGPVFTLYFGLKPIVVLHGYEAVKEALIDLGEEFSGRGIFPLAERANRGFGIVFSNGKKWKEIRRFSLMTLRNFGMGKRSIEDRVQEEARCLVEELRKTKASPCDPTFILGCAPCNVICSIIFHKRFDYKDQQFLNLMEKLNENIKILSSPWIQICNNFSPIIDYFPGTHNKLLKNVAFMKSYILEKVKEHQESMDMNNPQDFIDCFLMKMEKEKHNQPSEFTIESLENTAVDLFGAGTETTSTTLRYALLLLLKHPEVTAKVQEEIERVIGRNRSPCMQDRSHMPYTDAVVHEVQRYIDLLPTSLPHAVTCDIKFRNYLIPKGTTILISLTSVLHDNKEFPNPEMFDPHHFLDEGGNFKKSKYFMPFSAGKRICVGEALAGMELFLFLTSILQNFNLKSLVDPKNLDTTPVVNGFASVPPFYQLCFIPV

Q: What does the source list for `Cc1nc(C2CC2)ccc1CNC(=O)c1cc(-n2cccn2)ccc1Cl` [compound 8]?
A: fraction unbound at 4 h, 5 µM [1]: 0.063; IC50 (CYP450 2C9): 22.3 µM; IC50 (CYP450 3A4): 23.8 µM

Q: Which fraction unbound at 4 h, 5 µM [1] does the source give for `Cn1nc(-c2ccnn2C)cc1CNC(=O)c1cc(-n2cccn2)ccc1Cl` [compound 5] here?
A: Its fraction unbound at 4 h, 5 µM is 0.143.

Q: And the IC50 (CYP450 2C9)?
A: Its IC50 is > 30 µM.

Q: What about the IC50 (CYP450 3A4) of the same molecule?
A: Its IC50 is > 30 µM.

Q: Which fraction unbound at 4 h, 5 µM [1] does the source give for `Cc1nc2ccccc2cc1CNC(=O)c1cc(-n2cccn2)ccc1Cl` [compound 6] here?
A: The fraction unbound at 4 h, 5 µM was 0.037.

Q: What about the IC50 (CYP450 2C9) of the same molecule?
A: Its IC50 is 6.4 µM.

Q: What about the IC50 (CYP450 3A4) of the same molecule?
A: Its IC50 is 8.8 µM.

Q: With `Cc1nc2c(F)cccc2cc1CNC(=O)c1cc(-n2cccn2)ccc1Cl` [compound 7] as the molecule, how does the fraction unbound at 4 h, 5 µM [1] read?
A: Its fraction unbound at 4 h, 5 µM is 0.053.

Q: What about the IC50 (CYP450 2C9) of the same molecule?
A: Its IC50 is 5.9 µM.

Q: What about the IC50 (CYP450 3A4) of the same molecule?
A: The IC50 was 9 µM.

Q: Which fraction unbound at 4 h, 5 µM [1] does the source give for `Cn1cc(-c2cc(CNC(=O)c3cc(-c4ccco4)ccc3Cl)n(C)n2)cn1` [compound 4] here?
A: The fraction unbound at 4 h, 5 µM was 0.063.

Q: What about the IC50 (CYP450 2C9) of the same molecule?
A: Its IC50 is > 30 µM.

Q: And the IC50 (CYP450 3A4)?
A: Its IC50 is > 30 µM.

— paper PMC11843613, “Further Optimization of the mGlu1 PAM VU6024578/BI02982816: Discovery and Characterization of VU6033685” (ACS Chemical Neuroscience, 2025)
